Consider 12 compounds from publication PMC6274353, “The Blood-Brain Barrier Permeability of Lignans and Malabaricones from the Seeds of Myristica fragrans in the MDCK-pHaMDR Cell Monolayer Model” (Molecules, 2016).

Data set [1] can be described thus: bidirectional transport across the MDCK-pHaMDR cell monolayer (in vitro BBB model). The settings on record: dog, MDCK-MDR1, pH 7.35. Here is the method:
(§1) The MDCK-pHaMDR cells were seeded at a density of about 8 × 10^4 cells/mL on the 12-well Transwell® plates. After an eight-day culture, the cells reached confluence and differentiation for the transport study.
(§2) On the 8th day, the monolayers were washed twice and shaken at 55 rpm for 30 min with HBSS at 37 °C. Then, the TEER was measured with an epithelial volt-ohm meter (EVOM; World Precision Instrument) to examine the monolayer's integrity. Only those with the TEER values above 1000 Ω·cm^2 were qualified for the transport.
(§3) The bidirectional transport assay was initiated by adding a test compound to either the apical (0.5 mL for apical to basolateral transport, A→B) or the basolateral (1.5 mL for basolateral to apical transport, B→A) side. After shaking at 55 rpm and 37 °C for a certain time, samples (A→B: 400 µL from the apical side and 1300 µL from the basolateral side; B→A: 450 µL from the apical side and 450 µL from the basolateral side) were collected, immediately frozen, lyophilized and preserved below –20 °C before analysis.
(§4) Papp of each compound was calculated based on the following equation: (1) Papp = (ΔQ/Δt)/(AC0) (cm/s) where ΔQ/Δt is the appearance rate of the test compound at the receiver side (µmol/s), C0 is the initial concentration of the test compound at the donor side (µM), and A is the membrane surface area (cm^2). All of the experiments were conducted in triplicate.

For data set [2], the system named is MDCK-pHaMDR cell monolayer. The data set is described as above. The settings on record: classed by Papp against caffeine and atenolol. As to the method:
as §1, §2, §3, §4

Data set [3] deals with P-glycoprotein (P-gp). Put plainly: in vitro. The settings on record: dog.

Broadly, the Papp A→B is the apparent permeability from the apical to the basolateral side of a cell layer. A lower Papp A→B goes with slow passage. As a reminder, the Papp B→A is the apparent permeability from the basolateral to the apical side of a cell layer. The Papp is a coefficient for how fast a substance crosses the barrier. Low values mean slow passage, high ones fast passage. As to `C/C=C/c1cc(OC)c2c(c1)[C@@H](C)[C@H](c1ccc(O)c(OC)c1)O2` (racemic) [Compound 1, Dehydrodiisoeugenol], in data set [1], the Papp A→B at 90 min, 100 µM came out at 2.43 ± 0.32 ×10⁻⁶ cm/s; the Papp B→A at 90 min, 100 µM was determined as 1.82 ± 0.18 ×10⁻⁶ cm/s; the apparent permeability (Papp) at 90 min, 100 µM was ~1 ×10⁻⁶ cm/s.
As for `C/C=C/c1cc(OC)c2c(c1)[C@@H](C)[C@H](c1ccc3c(c1)OCO3)O2` [Compound 3, licarin B], in data set [1], the Papp A→B at 90 min, 100 µM was < 0.062 ×10⁻⁶ cm/s; the Papp B→A at 90 min, 100 µM is < 0.06 ×10⁻⁶ cm/s; the apparent permeability (Papp) at 90 min, 100 µM was ≤ 0.01 ×10⁻⁶ cm/s. Further, the “permeability (in words)” value in data set [2] is “very poor permeability”.
With `C/C=C/c1cc(OC)c2c(c1)[C@@H](C)[C@H](c1cc(OC)c3c(c1)OCO3)O2` [Compound 4, 3′-methoxylicarin B], in data set [1], the apical-to-basolateral permeability (Papp A→B) at 90 min, 100 µM was < 0.057 ×10⁻⁶ cm/s; the Papp B→A at 90 min, 100 µM was < 0.055 ×10⁻⁶ cm/s; the Papp at 90 min, 100 µM was ≤ 0.01 ×10⁻⁶ cm/s. Also, in data set [2], the “permeability (in words)” value was “very poor permeability”.
In data set [1], `COc1cc([C@H]2O[C@@H](c3ccc(O)c(OC)c3)[C@@H](C)[C@@H]2C)ccc1O` [Compound 8, verrucosin] came in with an apical-to-basolateral permeability (Papp A→B) at 90 min, 100 µM of 10.9 ± 0.32 ×10⁻⁶ cm/s and an apparent permeability from basolateral to apical (Papp B→A) at 90 min, 100 µM of 20.4 ± 0.97 ×10⁻⁶ cm/s.
For `COc1cc([C@H]2O[C@@H](c3ccc(O)c(OC)c3)[C@H](C)[C@@H]2C)ccc1O` [Compound 9, nectandrin B], in that order: 10.4 ± 1.49 ×10⁻⁶ cm/s and 15 ± 1.27 ×10⁻⁶ cm/s.
`COc1cc(CC(C)C(C)Cc2ccc(O)c(OC)c2)ccc1O` (stereo not drawn) [Compound 10, dihydroguaiaretic acid]: in data set [1], the apparent permeability from apical to basolateral (Papp A→B) at 90 min, 100 µM was < 0.145 ×10⁻⁶ cm/s; the Papp B→A at 90 min, 100 µM was < 0.14 ×10⁻⁶ cm/s; the Papp at 90 min, 100 µM is ~0.1 ×10⁻⁶ cm/s.
The corresponding values for `COc1cc([C@H]2c3cc(O)c(OC)cc3C[C@@H](C)[C@@H]2C)ccc1O` [Compound 11, guaiacin] are < 0.075 ×10⁻⁶ cm/s, < 0.073 ×10⁻⁶ cm/s and ≤ 0.01 ×10⁻⁶ cm/s.
For `COc1cc2c(cc1O)[C@H](c1ccc3c(c1)OCO3)[C@@H](C)[C@H](C)C2` [Compound 12, otobaphenol], in that order: < 0.073 ×10⁻⁶ cm/s, < 0.07 ×10⁻⁶ cm/s and ≤ 0.01 ×10⁻⁶ cm/s.
Turning to `O=C(CCCCCCCCc1ccccc1)c1c(O)cccc1O` [Compound 13, malabaricone A], in data set [1], the apparent permeability from apical to basolateral (Papp A→B) at 90 min, 100 µM was < 0.038 ×10⁻⁶ cm/s; the Papp B→A at 90 min, 100 µM is < 0.037 ×10⁻⁶ cm/s; the Papp at 90 min, 100 µM was ≤ 0.01 ×10⁻⁶ cm/s.
The corresponding values for `O=C(CCCCCCCCc1ccc(O)c(O)c1)c1c(O)cccc1O` [Compound 15, malabaricone C] are 0.64 ± 0.07 ×10⁻⁶ cm/s, 0.63 ± 0.04 ×10⁻⁶ cm/s and ~0.1 ×10⁻⁶ cm/s.
`Cn1c(=O)c2c(ncn2C)n(C)c1=O` [caffeine, reference compound] came in with an apparent permeability (Papp) in data set [1] of 24.4 ± 1.1 ×10⁻⁶ cm/s.
Take `COC(=O)c1ccccc1-c1c2ccc(=N)cc-2oc2cc(N)ccc12` [rhodamin 123, rhodamine 123]: the apparent permeability from basolateral to apical (Papp B→A) in data set [3] (MDCK-MDR1) amounted to 3.31 ± 0.12 ×10⁻⁶ cm/s; in data set [3] (MDCK-MDR1, with verapamil 100 µM) it was 1.52 ± 0.08 ×10⁻⁶ cm/s.
